{"source": "patent US20100216191A1", "about": "“Method for Manufacturing a Modified Peptide” (PROCOMCURE BIOTECH GMBH, priority 2007, published 2010)", "key": {"GST-tagged FnbB": {"test_system": "GST-tagged FnbB", "assay": "Pull-down with GST-tagged FnbB, proteins from rabbit reticulocyte translation system", "format": "binding, S. aureus", "details": "cell-free protein translation system; GST alone as negative control", "quoted_text": "Recombinant proteins were produced from the isolated plasmids from the PPI-partners in a rabbit reticulocyte-based translation system and additionally in E. coli cells. The produced recombinant proteins were used for pull-down and immunoprecipitation experiments."}, "His-tagged ClfB protein [1]": {"biological_target": "T1, His-tagged ClfB protein (Staphylococcus aureus, UniProt Q99R07)", "T1 sequence (Q99R07 45-841)": "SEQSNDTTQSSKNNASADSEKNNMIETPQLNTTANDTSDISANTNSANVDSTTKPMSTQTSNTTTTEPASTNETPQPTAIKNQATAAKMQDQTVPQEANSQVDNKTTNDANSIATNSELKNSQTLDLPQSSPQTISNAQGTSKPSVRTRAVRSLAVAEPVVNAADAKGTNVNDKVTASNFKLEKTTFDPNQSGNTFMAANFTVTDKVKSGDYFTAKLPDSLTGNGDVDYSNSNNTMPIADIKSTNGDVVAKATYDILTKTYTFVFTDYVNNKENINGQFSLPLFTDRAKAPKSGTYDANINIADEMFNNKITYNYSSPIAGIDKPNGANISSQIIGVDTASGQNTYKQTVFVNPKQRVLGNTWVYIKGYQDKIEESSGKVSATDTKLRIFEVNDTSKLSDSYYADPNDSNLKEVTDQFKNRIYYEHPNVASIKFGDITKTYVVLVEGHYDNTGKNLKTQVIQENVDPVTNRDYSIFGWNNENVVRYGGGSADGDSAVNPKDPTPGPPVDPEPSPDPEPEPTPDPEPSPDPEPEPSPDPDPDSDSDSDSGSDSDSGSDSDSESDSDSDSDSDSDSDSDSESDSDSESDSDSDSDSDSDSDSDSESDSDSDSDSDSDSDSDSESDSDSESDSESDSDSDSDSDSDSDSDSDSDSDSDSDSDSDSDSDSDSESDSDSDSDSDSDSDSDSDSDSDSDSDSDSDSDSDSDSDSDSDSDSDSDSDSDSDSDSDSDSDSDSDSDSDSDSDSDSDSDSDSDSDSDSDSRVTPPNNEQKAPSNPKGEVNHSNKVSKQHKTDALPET", "details": "5 μg spotted onto membrane, His-tag antibody detection", "protocol": "7.1. […] This peptide was also synthesized.\nPeptides were spotted onto a protein binding membrane and incubated with recombinant His-tagged ClfB protein. The irreversibly bound peptides can be targeted by additionally added ClfB. Bound ClfB protein is detected by a His-tag specific antibody (see FIG. 7)."}, "ClfB [2]": {"biological_target": "T2, ClfB (Staphylococcus aureus, UniProt Q99R07)", "T2 sequence (Q99R07 45-841)": "as above", "details": "Y2H-strain AH109, prey plasmid pGADT7", "quoted_text": "All constituents of this mini-library are tested directly in a binary manner against ClfB. • The identified interactions between ClfB and KRT6A, KRT8, and KRT5 (cf Table 1) were used for the experiment. • The interacting KRT-genes were compared in order to identify the plasmid harbouring the shortest KRT gene-fragment from the initial Y2H-screen. […] The clone with the smallest ClfB interacting DNA-insert is called clone clb10.1 • Clone clb10.1 was used as template for primer-design. PCR-primers were designed to lead to N-terminal truncations of the resulting protein. The clb10.1 DNA-template contains a 330 base pair DNA-fragment of the gene coding region of KRT8 (corresponds to a peptide of 110 amino acids). • The first primer-pair binds 45 bp downstream of the clb10.1 DNA-template resulting in a 45 by shortened DNA-fragment after PCR (the generated PCR-product contains a gene coding sequence of 285 bp). The resulting peptide encoded from this DNA is 95 amino acids. The PCR-product was cloned into an empty Y2H-prey plasmid, pGADT7. The plasmid was sequenced and the clone was named Frag1. • The second primer pair amplifies a PCR-product, which contains a gene coding sequence of 144 bp, which corresponds to a peptide of 48 amino acids. The PCR-product was cloned into an empty Y2H-prey plasmid, pGADT7. The plasmid was sequenced and the clone was named Frag2. • The third primer pair still amplifies the same gene coding sequence of KRT8, however the 3-primed untranslated region was removed. The 3-primed untranslated region is 241 bp long and not relevant for the interaction with ClfB protein. The removal of this 241 region was achieved by using a PCR-reverse primer, which binds upstream of this region in the DNA-template of clone 10.1. The resulting peptide, when translated from this PCR-product is still 48 amino acids. The PCR-product was cloned into an empty Y2H-prey plasmid, pGADT7. The plasmid was sequenced and the clone was named Frag2-CDS. • The fourth primer pair amplifies a PCR-product of 84 bp, which when translated into a protein will correspond to a peptide of 28 amino acids. The PCR-product was cloned into an empty Y2H-prey plasmid, pGADT7. The plasmid was sequenced and the clone was named Frag2-binding domain. • The fifth primer pair amplifies a PCR-product of 78 bp; when translated into a protein this fragment will correspond to a peptide of 26 amino acids. The PCR-product was cloned into an empty Y2H-prey plasmid, pGADT7. The plasmid was sequenced and the clone was named Frag3. • After PCR, the fragments were separated by gel-electrophoresis and the DNA was extracted from the gels by a commercial gel-extraction kit. The DNA was cut by restriction enzymes and cloned into the Y2H-plasmid pGADT7. The cloning reaction was introduced by plasmid transformation into E. coli. The transformation mixture was plated out onto plasmid-selective media containing the appropriate antibiotic. Growing colonies were inoculated into liquid media containing the same antibiotic, and the E. coli liquid culture was plasmid-purified and sequenced for confirmation. • Pure plasmid DNA from all constructs (Frag1, Frag2, Frag2-CDS, Frag2-binding domain, Frag3, clb10.1 clone, as well as full-length KRT6A, full-length KRT8, and full-length KRT5) were mixed to obtain a mini-library of different shortened fragments from the same interactor of ClfB."}, "ClfB [3]": {"biological_target": "T2, ClfB", "format": "cell-based, S. aureus", "parameters": "expressed in transfected cells; host or cells: yeast Y2H reporter strain AH109", "details": "among 100 clones after two rounds of selection against ClfB"}, "[4]": {"biological_target": "binding of GST-tagged keratin fragment to ClfB-protein (Staphylococcus aureus, UniProt Q99R07)", "sequence (Q99R07 45-841)": "as above", "details": "1 μM peptide; densitometry, ImageJ", "description": "7.2. […] Relative changes in pulled-down GST-tagged keratin fragment is quantified by densitometry using a flatbed scanner and the ImageJ software, provided by Wayne Rasband, National Institutes of Health. (ImageJ: http://rsb.info.nih.gov/ij/) See FIGS. 8 and 9"}, "living S. aureus cells": {"test_system": "living S. aureus cells", "assay": "Adhesion assay with living S. aureus cells, crystal violet, absorbance at 595 nm", "format": "cell-based", "details": "1 μg coated onto microwell-plates", "protocol": "• All genes coding for the used recombinant proteins were cloned into the plasmid pDEST15. […] This protein served as negative control 1 • Affinity purified, recombinantly in E. coli produced GST-tagged Frag2-CDS (49 ng/μl). the amino acid sequence of Frag2-CDS is N-[…]-C (SEQ ID NO: 71) • Affinity purified, recombinantly in E. coli produced GST-tagged S. aureus protein, methionine sulfoxide reductase msrB, NCBI protein GI:54041496, was diluted to a final concentration of 30 ng/μl. This protein served as negative control 2 • Affinity purified, recombinantly in E. coli produced GST-tagged S. aureus protein, NADPH-dependent 7-cyano-7-deazaguanine reductase, NCBI protein GI:81781951, was diluted to a final concentration of 61 ng/μl. This protein served as negative control 3 • Human aortic elastin protein, 1 mg elastin was purchased from the company Elastin Products company, product number HA587 and solubilized in 1 ml H2O to get the final concentration of 1 μg/μl. This protein served as positive control 1 because elastin protein is known to bind to S. aureus. • Human fibrinogen protein was purchased from the company Enzyme Research Laboratories, product number FIB 1 3120L; […] was solubilized in 50 ml H2O to get the final concentration of 2 μg/μl. […]"}, "[5]": {"biological_target": "T3, activation domain of yeast protein GAL4 (Saccharomyces cerevisiae, UniProt P04386)", "T3 construct": "expressed in transfected cells; host or cells: yeast Y2H reporter strain AH109", "T3 sequence (P04386 768-881)": "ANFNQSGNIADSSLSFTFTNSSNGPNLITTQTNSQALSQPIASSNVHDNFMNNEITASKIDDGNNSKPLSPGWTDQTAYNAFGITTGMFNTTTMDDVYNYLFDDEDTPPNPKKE", "assay": "Y2H specificity test against activation domain of GAL4", "format": "cell-based", "details": "Y2H-strain AH109"}, "[6]": {"biological_target": "T4, binding domain of yeast protein GAL4 (Saccharomyces cerevisiae, UniProt P04386)", "T4 construct": "expressed in transfected cells; host or cells: yeast Y2H reporter strain AH109", "T4 sequence (P04386 11-38)": "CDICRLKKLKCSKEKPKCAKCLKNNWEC", "assay": "Y2H specificity test against binding domain of GAL4", "format": "cell-based", "details": "Y2H-strain AH109"}, "[7]": {"biological_target": "T5, Frag2-binding domain peptide (Homo sapiens, UniProt P05787)", "T5 construct": "expressed in transfected cells; host or cells: yeast Y2H reporter strain AH109", "T5 sequence (P05787 437-464 limits assumed)": "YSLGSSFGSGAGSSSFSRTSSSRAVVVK", "assay": "Y2H test of peptide binding to the same peptide (homodimerization, stickiness)", "format": "cell-based", "details": "Y2H-strain AH109"}, "His-tagged ClfB protein [8]": {"biological_target": "T1, His-tagged ClfB protein", "details": "detection with anti-GST antibodies; listed as GST-tagged Keratin 8 protein fragment", "description": "(§1) 6.2.1. Recombinant Protein Production • The DNA-sequence coding for ClfB was cloned into a plasmid PET160 (a plasmid suitable for recombinant protein expression in E. coli and HIS-tag purification). The plasmid harbours a so-called HIS-tag, which is a DNA sequence coding for a stretch of six histidine residues. […]\n(§2) 6.2.2. […] The GST-tagged peptide was purified by using a commercial GST-tag purification kit. • After several washing steps the remaining proteins are eluted from the magnetic beads • The eluted protein/peptide mixture is loaded on a SDS-page gel, separated, transferred onto a membrane, and probed with GST-tag specific antibodies and bound antibodies are detected by chemiluminescence signals on chemiluminescence films. • The following combinations of recombinant proteins/peptides were used in the pull-downs: • a) BSA+GST-tagged 48-aminoacid long peptide • b) His-tagged ClfB+GST-tagged 48-amino acid-peptide • c) Purified GST+GST-tagged 48-amino acid-peptide"}, "BSA": {"biological_target": "BSA (Bos taurus, UniProt P02769)", "assay": "In vitro pull-down with BSA coated beads", "format": "binding", "details": "detection with anti-GST antibodies; listed as GST-tagged peptide of 48-amino acids", "description": "as §1, §2"}, "GST": {"biological_target": "T6, GST (Schistosoma japonicum, UniProt P08515)", "T6 construct": "purchased", "T6 sequence (P08515 whole entry)": "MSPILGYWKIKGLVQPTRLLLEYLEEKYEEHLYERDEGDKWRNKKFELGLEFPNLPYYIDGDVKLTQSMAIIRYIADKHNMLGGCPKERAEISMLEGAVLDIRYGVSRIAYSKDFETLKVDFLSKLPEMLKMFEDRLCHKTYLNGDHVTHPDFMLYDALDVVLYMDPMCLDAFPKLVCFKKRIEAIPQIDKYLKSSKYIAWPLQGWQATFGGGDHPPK", "assay": "In vitro pull-down with GST coated beads", "format": "binding", "details": "detection with anti-GST antibodies; listed as GST-tagged peptide of 48-amino acids", "description": "as §1, §2"}, "ClfB [9]": {"biological_target": "T2, ClfB", "details": "for Relative interaction strength to ClfB compared to the original binder: X-Gal overlay assays and growth strength on 3AT media, AH109 cells; for More beta galactosidase in comparison to the original binder: X-Gal overlay, equal numbers of cells"}}, "note": "“Also recorded” adds a separate entry of the source. Like-named read-outs stand apart in the source and are kept apart here. Where no end group is shown, it is not given here."}
{"substance": "CCT—beta: human protein interacting with FnbB, NCBI Protein GI 2559012", "values": [{"measurement": "Co-purified with GST-tagged FnbB", "setting": "GST-tagged FnbB", "result": "could be co-purified"}]}
{"substance": "EQRGELAIKDANAKLSELEAAL [control peptide, reference compound]", "values": [{"measurement": "Binding of recombinant ClfB to spotted peptide", "setting": "His-tagged ClfB protein [1]", "result": "no binding was detected"}]}
{"substance": "QELMNVKLALDIEIATYRKLLEGEESRLESGMQNMSIHTKTTSGYAGGLSSAYGGLTSPGLSYSLGSSFGSGAGSSSFSRTSSSRAVVVKKIETRDGKLVSESSDVLPK [Clone 10.1]", "values": [{"measurement": "Interaction capable with ClfB in the Y2H-system", "setting": "ClfB [2]", "result": "Yes"}, {"measurement": "Identified X-times by sequencing", "setting": "ClfB [3]", "result": 8}]}
{"substance": "RAVVVKKIETRDGKLVSESSDVLPK [Frag 3]", "values": [{"measurement": "Interaction capable with ClfB in the Y2H-system", "setting": "ClfB [2]", "result": "No"}, {"measurement": "Identified X-times by sequencing", "setting": "ClfB [3]", "result": 0}, {"measurement": "Identified X-times by sequencing", "setting": "ClfB [3]; listed as Frag3", "result": "No single clone"}]}
{"substance": "SYSLGSSFGSGAGSSSFSRTS [IPEP-21SA]", "values": [{"measurement": "Binding of recombinant ClfB to spotted peptide", "setting": "His-tagged ClfB protein [1]", "result": "could bind"}, {"measurement": "Competitive inhibition of binding of GST-tagged keratin fragment to ClfB-protein", "setting": "[4]", "result": "~40", "unit": "%"}, {"measurement": "Binding to living pathogen cells", "setting": "living S. aureus cells", "result": "binds strongly"}]}
{"substance": "TYRKLLEGEESRLESGMQNMSIHTKTTSGYAGGLSSAYGGLTSPGLSYSLGSSFGSGAGSSSFSRTSSSRAVVVKKIETRDGKLVSESSDVLPK [Frag 1]", "values": [{"measurement": "Interaction capable with ClfB in the Y2H-system", "setting": "ClfB [2]", "result": "Yes"}, {"measurement": "Identified X-times by sequencing", "setting": "ClfB [3]", "result": 12}]}
{"substance": "YSLGSSFGSGAGSSSFSRTSSSRAVVVK [Frag 2-binding domain]", "values": [{"measurement": "Interaction with the activation domain of GAL4 protein", "setting": "[5]", "result": "neither interacts"}, {"measurement": "Interaction with the binding-domain of GAL4 protein", "setting": "[6]", "result": "neither interacts"}, {"measurement": "Interaction of the peptide with itself", "setting": "[7]", "result": "does not interact with itself"}, {"measurement": "Interaction capable with ClfB in the Y2H-system", "setting": "ClfB [2]", "result": "Yes"}, {"measurement": "Interaction capable with ClfB in the Y2H-system", "setting": "ClfB [2]; listed as Frag2-binding domain", "result": "still capable of interaction; also recorded: does only interact with ClfB protein"}, {"measurement": "Identified X-times by sequencing", "setting": "ClfB [3]", "result": 18}]}
{"substance": "YSLGSSFGSGAGSSSFSRTSSSRAVVVKKIETRDGKLVSESSDVLPK (also: fused to a dimerising Fc or GST (not shown)) [GST-tagged Frag2-CDS, Frag2-CDS peptide recombinantly produced in E. coli with N-terminally fused glutathione S-transferase]", "values": [{"measurement": "Pulled down (co-purified) with His-tagged ClfB protein", "setting": "His-tagged ClfB protein [8]", "result": "could only be pulled down when His-tagged recombinant ClfB was present"}, {"measurement": "Pulled down by BSA coated beads", "setting": "BSA", "result": "Neither BSA coated- nor GST coated magnetic beads could pull down; also recorded: neither a) BSA nor c) GST coated beads can pull-down"}, {"measurement": "Pulled down by GST coated beads", "setting": "GST", "result": "Neither BSA coated- nor GST coated magnetic beads could pull down; also recorded: neither a) BSA nor c) GST coated beads can pull-down"}, {"measurement": "Binding of recombinant ClfB to spotted peptide", "setting": "His-tagged ClfB protein [1]", "result": "could bind"}, {"measurement": "Binding to living pathogen cells", "setting": "living S. aureus cells", "result": "binds strongly"}]}
{"substance": "YSLGSSFGSGAGSSSFSRTSSSRAVVVKKIETRDGKLVSESSDVLPK [Frag 2-CDS]", "values": [{"measurement": "Interaction capable with ClfB in the Y2H-system", "setting": "ClfB [2]", "result": "Yes"}, {"measurement": "Identified X-times by sequencing", "setting": "ClfB [3]", "result": 28}, {"measurement": "Identified X-times by sequencing", "setting": "ClfB [3]; listed as Frag2-CDS", "result": 28}]}
{"substance": "YSLGSSFGSGAGSSSFSRTSSSRAVVVKKIETRDGKLVSESSDVLPK [Frag 2]", "values": [{"measurement": "Interaction capable with ClfB in the Y2H-system", "setting": "ClfB [2]", "result": "Yes"}, {"measurement": "Identified X-times by sequencing", "setting": "ClfB [3]", "result": 25}]}
{"substance": "YSLGSSFGSGAGSSSLGRTSSSRAVVVK [stronger binder]", "values": [{"measurement": "Relative interaction strength to ClfB compared to the original binder", "setting": "ClfB [9]", "result": "binds with increased affinity"}, {"measurement": "More beta galactosidase in comparison to the original binder", "setting": "ClfB [9]", "result": "at least 50%"}]}
{"substance": "YSLGSSFGSGAGSSSSSRTSPSRAVVVK [more stronger binder]", "values": [{"measurement": "Relative interaction strength to ClfB compared to the original binder", "setting": "ClfB [9]", "result": "binds with increased strength"}, {"measurement": "More beta galactosidase in comparison to the original binder", "setting": "ClfB [9]", "result": "≥ 100", "unit": "%"}]}
{"substance": "lysosomal sialidase NEU 1: human protein interacting with FnbB, NCBI Protein GI 30583251", "values": [{"measurement": "Co-purified with GST-tagged FnbB", "setting": "GST-tagged FnbB", "result": "could be co-purified"}]}
